From patent publication US10576102B2, “KOC1-derived peptide and vaccine including same” (ONCOTHERAPY SCIENCE, INC., priority 2014, dated 2020)

Key:
Assay type in all cases: cell-based, human
peptide-pulsed C1R-A33 = experiment: IFN-gamma ELISA of CTL lines and CTL clones (HLA-A*3303)
Description: (§1) CTLs were propagated in culture using methods similar to those disclosed by Riddell et al. (Walter E A et al., N Engl J Med 1995, 333(16): 1038-44; Riddell S R et al., Nat Med 1996, 2(2): 216-23). The CTLs were co-cultured in a total of 25 ml AIM-V medium containing 5% AS (AIM-V/5% AS) and 40 ng/ml anti-CD3 antibody with two types of Mitomycin C-treated human B lymphoblastoid cell lines at 5×10^6 cells/flask. One day after beginning of the culturing, 120 IU/ml IL-2 was added to the culture. On days 5, 8 and 11, a fresh AIM-V/5% AS medium containing 30 IU/ml IL-2 was added to the culture (Tanaka H et al., Br J Cancer 2001, 84(1): 94-9; Umano Y et al., Br J Cancer 2001, 84(8): 1052-7; Uchida N et al., Clin Cancer Res 2004, 10(24): 8577-86; Suda T et al., Cancer Sci 2006, 97(5): 411-9; Watanabe T et al., Cancer Sci 2005, 96(8): 498-506).
(§2) Dilution of CTLs was carried out to make 0.3, 1 and 3 cells/well in 96 round-bottomed microtiter plates (Nalge Nunc International). The CTLs were co-cultured with two types of Mitomycin C-treated human B lymphoblastoid cell lines at 1×10^4 cells/well in a total of 150 micro-1/well AIM-V/5% AS medium with 30 ng/ml anti-CD3 antibody and 125 IU/ml IL-2. Ten days later, IL-2 was added to the medium at 50 micro-1/well to reach a final concentration of 125 IU/ml. On day 14, the CTL activity was tested, and the CTL clones were propagated using the same method as described above (Uchida N et al., Clin Cancer Res 2004, 10(24): 8577-86; Suda T et al., Cancer Sci 2006, 97(5): 411-9; Watanabe T et al., Cancer Sci 2005, 96(8): 498-506).
Specifically, peptide-pulsed C1R-A33 (1×10^4 cells/well) was prepared as the stimulator cell. The induced CTLs, i.e., CTL lines and CTL clones, were used as the responder cell. The IFN-gamma ELISPOT assay and IFN-gamma ELISA were performed according to the manufacturer's manual.

peptide-pulsed C1R-A11 [1] = experiment: IFN-gamma ELISA of CTL lines and CTL clones (HLA-A*1101); conditions: CTL lines; target cells pulsed with the peptide vs not pulsed; C1R-A11
Description: as §1, §2
Specifically, peptide-pulsed C1R-A11 (1×10^4 cells/well) was prepared as the stimulator cell. The induced CTLs, i.e., CTL lines and CTL clones, were used as the responder cell. The IFN-gamma ELISPOT assay and IFN-gamma ELISA were performed according to the manufacturer's manual.

peptide-pulsed C1R-A11 [2] = experiment: In vitro CTL induction, IFN-gamma ELISPOT assay (HLA-A*1101); conditions: CTLs induced with peptide-pulsed DCs from HLA-A*1101-positive volunteers; day 21; vs peptide-pulsed C1R-A11, compared with unpulsed control
In short: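 CD8+ T cells from HLA-A*1101-positive donors were stimulated three times (days 0, 7, 14) with irradiated autologous monocyte-derived DCs pulsed with 20 μg/ml peptide, in the presence of IL-7 and IL-2. On day 21, […] were tested by IFN-gamma ELISPOT against peptide-pulsed C1R-A11 stimulators at 1×10^4 cells/well.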

For “ILAHNNFVGR (a peptide derived from KOC1) [SEQ ID NO: 52]”, the “IFN-gamma production of CTL clones, ELISA” value (peptide-pulsed C1R-A33; CTL clones by limiting dilution, peptide-pulsed C1R-A33, listed as KOC1-A33-10-281) was “Potent IFN-gamma production” and the “IFN-gamma production of CTL lines, ELISA” value (peptide-pulsed C1R-A33; CTL lines, target cells pulsed with the peptide vs not pulsed, C1R-A33) was “potent IFN-gamma production”.

In the case of “TQFVGAIIGK (a peptide derived from KOC1) [SEQ ID NO: 30]”, the “IFN-gamma production of CTL lines, ELISA” value (peptide-pulsed C1R-A11 [1]) is reported as “potent IFN-gamma production” and the “peptide-specific CTL activity (IFN-gamma production), ELISPOT” value (peptide-pulsed C1R-A11 [2]) is reported as “potent IFN-gamma production”.
